The subject of this assay is SD rats. In words: Defensive withdrawal test in rats under stress (time to come out of a cylinder). The class given is in vivo, rat. The note with it: for antidepressant effect: same defensive withdrawal tests in SD rats as for L-isoleucine. On the procedure:
SD rats (10-week-old) were divided into two groups (10 rats in each group). One group (control group) was kept for 6 days with free access to food (standard AIN-76 diet manufactured by Nosan Corporation) and water. The other group (present invention group) was kept for 6 days with free access to food (standard AIN-76 diet containing 1% by mass of L-isoleucine) and water. Using these subject animals, depression-improving activity in rats under stress was tested according to the defensive withdrawal test method by Gutman, D. A. et al. (The Journal of Pharmacology and Experimental Therapeutics, 304 (2), 874 (2003)). That is, a rat (one from each group) was dropped, tail first, into an upright black cylinder 10 cm in diameter and 20 cm in length, and immediately covered with a lid. After 10 seconds, the cylinder was placed in an open field (100 cm long, 100 cm wide, and 45 cm high) made up of white acrylic boards, facing one corner, at a position 20 cm from the corner. […] The test was carried out under an illuminance of 200 1× in a soundproof room, and behavior of the rat was videotaped from above and observed using a monitor outside the soundproof room. Statistical processing was performed by two-sided Student's t-test.

In the case of `CC(C)[C@H](N)C(=O)O` [L-valine], the antidepressant effect result is “same antidepressant effect as that of L-isoleucine was confirmed”.

With `CC(C)C[C@H](N)C(=O)O` [L-leucine], the antidepressant effect result is “same antidepressant effect as that of L-isoleucine was confirmed”.

As for `CC[C@H](C)[C@H](N)C(=O)O` [L-isoleucine], the “time the rat took to come out of the cylinder” value (SD rats, 10-week-old, 6 days free access to AIN-76 diet containing 1% by mass of the amino acid, observed 5 minutes, compared to control group) is reported as “significantly shorter time to come out of the cylinder”.
